{"source": "patent EP1143981B1", "about": "“USE OF N-GLYCOLNEURAMINIC ACID AND ITS DERIVATIVES FOR THE MANUFACTURE OF A MEDICAMENT FOR THE TREATMENT OF HIV INFECTIONS” (Glukor, Inc., priority 1998, dated 2000)", "tested_on": "HIV-1 MN", "format": "cell-based", "description": "Test groups included uninfected PBMCs, infected PBMCs with no N-glycolylneuraminic acid, and infected PBMCs plus N-glycolylneuraminic acid. […] Excess virus was removed by washing the cells with PBS one time then the cells were exposed to N-glycolylneuraminic acid. P24 output was measured using the DuPont P24 assay kit (optical density (OD) in Table 15). Syncytia formation was examined as well as cytopathic effects (CPE). […] Sample #7 (p24 123x10^6 pg HIV-1P24/ml) was excluded from the mean P24 output calculation due to a sampling error. […]", "note": "Where two headings read alike, the source gives them in different places.", "data": [{"molecule": "O=C(CO)N[C@H]1[C@H]([C@H](O)[C@H](O)CO)OC(O)(C(=O)O)C[C@@H]1O", "note": "(some centres unmarked) [N-glycolylneuraminic acid]", "values": [{"measurement": "CPE", "setting": "Neu5Gc dilution 1:2", "value": "negative"}, {"measurement": "O.D.", "setting": "Neu5Gc dilution 1:2", "value": 0.017}, {"measurement": "P-24", "setting": "Neu5Gc dilution 1:2", "value": "320 picograms HIV-1 p24 per mL"}, {"measurement": "Syncytia", "setting": "Neu5Gc dilution 1:2", "value": "negative"}, {"measurement": "CPE", "setting": "Neu5Gc dilution 1:4", "value": "negative"}, {"measurement": "O.D.", "setting": "Neu5Gc dilution 1:4", "value": 0.043}, {"measurement": "P-24", "setting": "Neu5Gc dilution 1:4", "value": "922 picograms HIV-1 p24 per mL"}, {"measurement": "Syncytia", "setting": "Neu5Gc dilution 1:4", "value": "negative"}, {"measurement": "CPE", "setting": "Neu5Gc dilution 1:8", "value": "negative"}, {"measurement": "O.D.", "setting": "Neu5Gc dilution 1:8", "value": 0.057}, {"measurement": "P-24", "setting": "Neu5Gc dilution 1:8", "value": "871 picograms HIV-1 p24 per mL"}, {"measurement": "Syncytia", "setting": "Neu5Gc dilution 1:8", "value": "negative"}, {"measurement": "CPE", "setting": "Neu5Gc dilution 1:16", "value": "negative"}, {"measurement": "O.D.", "setting": "Neu5Gc dilution 1:16", "value": 0.061}, {"measurement": "P-24", "setting": "Neu5Gc dilution 1:16", "value": "824 picograms HIV-1 p24 per mL"}, {"measurement": "Syncytia", "setting": "Neu5Gc dilution 1:16", "value": "negative"}, {"measurement": "CPE", "setting": "Neu5Gc dilution 1:32", "value": "negative"}, {"measurement": "O.D.", "setting": "Neu5Gc dilution 1:32", "value": 0.012}, {"measurement": "P-24", "setting": "Neu5Gc dilution 1:32", "value": "265 picograms HIV-1 p24 per mL"}, {"measurement": "Syncytia", "setting": "Neu5Gc dilution 1:32", "value": "negative"}, {"measurement": "CPE", "setting": "Neu5Gc dilution 1:64", "value": "negative"}, {"measurement": "O.D.", "setting": "Neu5Gc dilution 1:64", "value": 0.041}, {"measurement": "P-24", "setting": "Neu5Gc dilution 1:64", "value": "865 picograms HIV-1 p24 per mL"}, {"measurement": "Syncytia", "setting": "Neu5Gc dilution 1:64", "value": "negative"}, {"measurement": "cell viability", "setting": "human, pbmcs", "value": 25, "unit": "%"}, {"measurement": "Mean p24 output", "setting": "samples treated with N-glycolylneuraminic acid (corrected for dilution factor)", "value": "624± 326", "unit": "pg HIV-1P24/ml"}]}]}
